Results published in patent US6525059B1, “Substituted pyrazoles as p38 kinase inhibitors” (G. D. Searle & Company, priority 1998, dated 2003).
“And” between values parts separate entries of the source, which are not always exact repeats. Identical values can stand only once. Counter-ions that a name gives are not always drawn. Like-named read-outs stand apart in the source and are kept apart here. Each block holds one molecule with its values, some of them ahead of it.

How the values were obtained:
[1] = molecular target: T1, human GST-p38 kinase alpha (Homo sapiens, UniProt Q16539); assay: p38 kinase in vitro assay, second format, phosphorylation of EGFRP with 33P-ATP; type: biochemical
T1 construct: The coding region of the human p38a cDNA was obtained by PCR-amplification from RNA isolated from the human monocyte cell line THP.1; made in house; host or cells: E. coli DH10B
T1 sequence (Q16539 whole entry): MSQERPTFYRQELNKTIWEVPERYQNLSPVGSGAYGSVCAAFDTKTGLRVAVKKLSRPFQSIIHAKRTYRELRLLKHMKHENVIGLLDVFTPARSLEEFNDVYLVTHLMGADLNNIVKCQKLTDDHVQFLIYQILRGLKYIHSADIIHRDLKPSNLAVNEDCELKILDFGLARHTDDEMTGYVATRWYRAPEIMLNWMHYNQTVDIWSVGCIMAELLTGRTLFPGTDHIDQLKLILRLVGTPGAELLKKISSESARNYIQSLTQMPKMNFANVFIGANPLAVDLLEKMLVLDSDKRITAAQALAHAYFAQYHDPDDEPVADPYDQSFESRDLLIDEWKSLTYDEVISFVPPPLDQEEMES
Procedure: A second assay format was also employed that is based on p38 kinase alpha induced phosphorylation of EGFRP (epidermal growth factor receptor peptide, a 21 mer) in the presence of ^33P-ATP. Compounds were tested in 10 fold serial dilutions over the range of 100 μM to 0.001 μM in 10% DMSO. Each concentration of inhibitor was tested in triplicate. Compounds were evaluated in 50 μl reaction volumes in the presence of 25 mM Hepes pH 7.5, 10 mM magnesium acetate, 4% glycerol, 0.4% bovine serum albumin, 0.4 mM DTT, 50 μM unlabeled ATP, 25 μg EGFRP (200 μM), and 0.05 uCi gamma ^33P-ATP. Reactions were initiated by addition of 0.09 μg of activated, purified human GST-p38 kinase alpha. Activation was carried out using GST-MKK6 (5:1, p38: MKK6) for one hour at 30° C. in the presence of 50 μM ATP. Following incubation for 60 minutes at room temperature, the reaction was stopped by addition of 150 μl of AG 1×8 resin in 900 mM sodium formate buffer, pH 3.0 (1 volume resin to 2 volumes buffer). The mixture was mixed three times with pipetting and the resin was allowed to settle. A total of 50 μl of clarified solution head volume was transferred from the reaction wells to Microlite-2 plates. 150 μl of Microscint 40 was then added to each well of the Microlite plate, and the plate was sealed, mixed, and counted.

[2] = test system: TNF-α; assay: LPS stimulation of TNF production by U937 cells; type: cell-based, human; conditions: Homo sapiens; for inhibition at 1 µM: U-937, @ 1.0 uM, read-out: U937 Cell % inhib @ conc.
Method in brief: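 PMA-differentiated human U937 cells (20 ng/ml PMA, 24 h, then 24-48 h rest) at 2 million cells/ml, 0.1% DMSO final, stimulated with E. coli LPS (100 ng/ml final) for 4 h at 37° C. TNF-α in medium measured by ELISA; IC50 in μM.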

[3] = molecular target: T2, human p38 kinase alpha (Homo sapiens, UniProt Q16539); assay: p38 kinase in vitro assay, phosphorylation of biotinylated PHAS-I with gamma 32P-ATP; type: biochemical
T2 construct: The coding region of the human p38a cDNA was obtained by PCR-amplification from RNA isolated from the human monocyte cell line THP.1; GST (N); made in house; host or cells: E. coli DH10B
T2 sequence (Q16539 whole entry): as above
Method in brief: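 Radiometric filter-capture read-out: streptavidin plates trap biotin-PHAS-I labelled by activated (MKK6) human p38α from γ-32P-ATP. Buffer 25 mM HEPES pH 7.5, 10 mM magnesium acetate, 50 μM cold ATP; reactions 1 h or overnight at 30 °C; inhibitors 10-fold dilutions 100 to 0.001 μM, triplicates, 1% DMSO.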

[4] = test system: TNF-α; assay: Rat assay: LPS-challenged rats, serum TNF-α by ELISA; type: in vivo; conditions: Rattus norvegicus, po; for inhibition in vivo at 5 mg/kg: 5 mpk oral gavage, 4 h before LPS challenge, read-out: Rat LPS Model % Inhibition @ dose @ predose time
Procedure: The efficacy of the novel compounds in blocking the production of TNF also was evaluated using a model based on rats challenged with LPS. Male Harlen Lewis rats [Sprague Dawley Co.] were used in this model. Each rat weighed approximately 300 g and was fasted overnight prior to testing. Compounds administration was typically by oral gavage (although intraperitoneal, subcutaneous and intravenous administration were also used in a few instances) 1 to 24 hours prior to the LPS challenge. Rats were administered 30 μg/kg LPS [salmonella typhosa, Sigma Co.] intravenously via the tail vein. Blood was collected via heart puncture 1 hour after the LPS challenge. Serum samples were stored at −20° C. until quantitative analysis of TNF-α by Enzyme Linked-Immuno-Sorbent Assay (“ELISA”) [Biosource]. Additional details of the assay are set forth in Perretti, M., et al., Br. J. Pharmacol. (1993), 110, 868-874, which is incorporated by reference in this application.
In vivo assessment of the ability of the compounds to inhibit LPS-stimulated TNF release in the rat is shown in the column identified as:
wherein in the dose is milligram per kilogram (mpk) administered by oral gavage and the predose time indicates the number of hours before LPS challenge when the compound is administered.

[5] = Table 8, 10% DMSO, read-out: p38α Kinase Assay IC50
[6] = Table 10, 10% DMSO, @ 1.0 hour, read-out: p38α Kinase Assay IC50
[7] = p38α in vitro, EGFRP assay procedure, read-out: p38^2 IC50
[8] = U-937, LPS-stimulated U937 cells, read-out: U937 IC50
[9] = p38α in vitro, PHAS-I assay procedure, read-out: p38^1 IC50
[10] = Table 8, dose 3.0 mg/kg, read-out: Rat LPS Assay % Inhibition
[11] = read-out: P38 alpha kinase IC50
[12] = U-937, TNF production, LPS-stimulated human U937 cells, read-out: U937 Cell IC50
[13] = -4 h, 3 mpk oral gavage, -4h before LPS, read-out: Rat LPS Model % inhib @ dose @ predose time

- IC50 [1, 5]: 370 nM
Structure (SMILES): O=C(c1n[nH]c(-c2ccc(F)cc2)c1-c1ccncc1)N1CCNCC1 [A-314, Step 1, 1-[[5-(4-fluorophenyl)-4-(4-pyridinyl)-1H-pyrazol-3-yl]carbonyl]piperazine, monhydrate]

- IC50 [1, 6]: 1720 nM
Structure (SMILES): Cc1cccc(C(=O)Cc2ccncc2)c1 [A-389, Step 1, 1-tolyl-2-(4-pyridyl)ethanone]

Structure (SMILES): Clc1ccc(-c2n[nH]c(SC3CCNCC3)c2-c2ccncc2)cc1 [A-459 (salt)]
- IC50 [1, 6]: 100 nM

- IC50 [1, 7]: 104 nM
Structure (SMILES): Cc1cccc(-c2nn(C)cc2-c2ccnc(C)c2)c1 [Example A-235, 2-methyl-4-[1-methyl-3 (or 5)-(3-methylphenyl)-1H-pyrazol-4-yl]pyridine]

- IC50 [1, 7]: 177 nM
- IC50 [2, 8]: 402 nM
Structure (SMILES): Cn1cc(-c2ccncc2)c(-c2cccc(C(F)(F)F)c2)n1 [Example A-238, 4-[1-methyl-3-[3-(trifluoromethyl)phenyl]-1H-pyrazol-4-yl]pyridine]

- IC50 [1, 7]: 99 nM
Structure (SMILES): Fc1ccc(-c2n[nH]cc2-c2ccnc(/C=C/c3ccccc3)c2)cc1 [Example A-244, (E)-4-[3-(4-fluorophenyl)-1H-pyrazol-4-yl]-2-(2-phenylethenyl)pyridine]

- IC50 [3, 9]: 403 nM
- IC50 [1, 7]: 592 nM
- IC50 [2, 8]: 495 nM
Structure (SMILES): COc1ccc(CNc2cc(-c3c[nH]nc3-c3ccc(Cl)cc3)ccn2)cc1 [Example A-246, 4-[3-(4-chlorophenyl)-1H-pyrazol-4-yl]-N-[(4-methoxy-phenyl)methyl]-2-pyridinamine]

- IC50 [1, 7]: < 10 nM
- IC50 [2, 8]: 166 nM
Structure (SMILES): Clc1ccc(-c2n[nH]cc2-c2ccnc(NCc3ccccn3)c2)cc1 [Example A-247, N-[4-[3-(4-chlorophenyl)-1H-pyrazol-4-yl]-2-pyridinyl]-2-pyridinemethanamine]

- IC50 [1, 7]: 2870 nM
Structure (SMILES): Ic1ccc(-c2n[nH]cc2-c2ccncc2)cc1 [Example A-250, 4-[3-(4-iodophenyl)-1H-pyrazol-4-yl]pyridine]

- IC50 [1, 7]: 81 nM
- IC50 [2, 8]: 141 nM
Structure (SMILES): Fc1ccc(-c2n[nH]cc2-c2ccnc(NCc3cccc(F)c3)c2)cc1 [Example A-254, N-[(3-fluorophenyl)methyl]-4-[3-(4-fluorophenyl)-1H-pyrazol-4-yl]-2-pyridinamine]

- IC50 [1, 7]: 813 nM
- IC50 [2, 8]: 456 nM
Structure (SMILES): Cn1cc(-c2ccnc(F)c2)c(-c2ccc(F)cc2)n1 [Example A-256, 2-fluoro-4-[3-(4-fluorophenyl)-1-methyl-1H-pyrazol-4-yl]pyridine]

- IC50 [3, 9]: 1080 nM
- IC50 [1, 7]: < 10 nM
- IC50 [2, 8]: 517 nM
Structure (SMILES): Fc1cc(-c2c[nH]nc2-c2ccc(F)c(F)c2)ccn1 [Example A-257, 4-[3-(3,4-difluorophenyl)-1H-pyrazol-4-yl]-2-fluoropyridine]

Structure (SMILES): CS(=O)(=O)N1CCN(c2n[nH]c(-c3ccc(Cl)cc3)c2-c2ccncc2)CC1 [Example A-320, 1-[5-(4-chlorophenyl)-4-(4-pyridinyl)-1H-pyrazol-3-yl]-4-(methylsulfonyl)piperazine, monohydrate]
- IC50 [1, 5]: 50 nM and 150 nM
- inhibition in vivo at 3 mg/kg [4, 10]: 1%

Structure (SMILES): C#CCNc1nccc(-c2cn[nH]c2-c2ccc(F)cc2)n1 [Example A-324, 4-[3-(4-fluorophenyl)-1H-pyazol-4-yl]-N-2-propynyl-2-pyrimidinamine]
- IC50 [1, 5]: 80 nM
- inhibition in vivo at 3 mg/kg [4, 10]: 44%

Structure (SMILES): CCOC(=O)N1CCC(Nc2n[nH]c(-c3ccc(Cl)cc3)c2-c2ccncc2)CC1 [Example A-331, ethyl 4-[[5-(4-chlorophenyl)-4-(4-pyridinyl)-1H-pyrazol-3-yl]amino]-1-piperidinecarboxylate]
- IC50 [1, 5]: 640 nM
- inhibition in vivo at 20 mg/kg ([4]; Table 8, dose 20.0 mg/kg): 13%

- IC50 [1, 5]: 1160 nM
Structure (SMILES): COc1ccccc1N1CCN(c2n[nH]c(-c3ccc(Cl)cc3)c2-c2ccncc2)CC1 [Example A-336, 1-[5-(4-chlorophenyl)-4-(4-pyridinyl)-1H-pyrazol-3-yl]-4-(2-methoxyphenyl)piperazine]

- IC50 ([1]; Table 9, 10% DMSO, read-out: p38α Kinase Assay IC50): 180 nM and 1250 nM
Structure (SMILES): C=CCn1cc(-c2ccncc2)c(-c2ccc(F)cc2)n1 [Example A-385, 4-[3-(4-fluorophenyl)-1-(2-propenyl)-1H-pyrazol-4-yl]pyridine, monohydrochloride]

- IC50 [1, 6]: > 100000 nM
Structure (SMILES): O=C(C(=C1SCS1)c1ccncc1)c1ccc(OC(F)(F)F)cc1 [Example A-395]

- IC50 [1, 6]: 59000 nM
Structure (SMILES): O=C(C(=C(SCC1OCCO1)SCC1OCCO1)c1ccncc1)c1ccc(F)cc1 [Example A-449]

- IC50 [1, 6]: 12900 nM
Structure (SMILES): Sc1[nH]nc(-c2ccc(Cl)cc2)c1-c1ccncc1 [Example A-455]

- IC50 [1, 6]: 30600 nM
Structure (SMILES): O=C(O)CSc1[nH]nc(-c2ccc(Cl)cc2)c1-c1ccncc1 [Example A-461]

- IC50 [1, 6]: 4920 nM
Structure (SMILES): O=C(O)C(Cc1cnc[nH]1)Sc1[nH]nc(-c2ccc(Cl)cc2)c1-c1ccncc1 (centres unmarked) [Example A-471]

Structure (SMILES): C[C@@H](NS(=O)(=O)Cc1ccccc1)c1[nH]nc(-c2ccc(F)cc2)c1-c1ccncc1 [Example B-0389]
- IC50 [3, 11]: 10 nM
- IC50 [2, 12]: 50 nM
- inhibition in vivo at 3 mg/kg [4, 13]: 62%

Structure (SMILES): CCOC(=O)N[C@H](C)c1[nH]nc(-c2ccc(F)cc2)c1-c1ccncc1 [Example B-0426]
- IC50 [3, 11]: 55 nM
- IC50 [2, 12]: 740 nM
- inhibition in vivo at 3 mg/kg [4, 13]: 41%

Structure (SMILES): C[C@@H](NS(=O)(=O)c1cccc(Br)c1)c1[nH]nc(-c2ccc(F)cc2)c1-c1ccncc1 [Example B-0455]
- inhibition at 1 µM [2]: 95%
- inhibition in vivo at 3 mg/kg [4, 13]: 36%

Structure (SMILES): C[C@@H](NS(=O)(=O)c1ccc(F)c(Cl)c1)c1[nH]nc(-c2ccc(F)cc2)c1-c1ccncc1 [Example B-0466]
- inhibition at 1 µM [2]: 98%
- inhibition in vivo at 3 mg/kg [4, 13]: 0%

Structure (SMILES): C[C@@H](NS(=O)(=O)c1ccc(C#N)cc1)c1[nH]nc(-c2ccc(F)cc2)c1-c1ccncc1 [Example B-0479]
- IC50 [3, 11]: 31 nM
- inhibition at 1 µM [2]: 90%
- inhibition in vivo at 3 mg/kg [4, 13]: 15%

Structure (SMILES): C[C@@H](NS(=O)(=O)c1ccc(-c2ccccc2)cc1)c1[nH]nc(-c2ccc(F)cc2)c1-c1ccncc1 [Example B-0481]
- IC50 [3, 11]: 14 nM
- inhibition at 1 µM [2]: 95%
- inhibition in vivo at 3 mg/kg [4, 13]: 56%

Structure (SMILES): N[C@H]1CC[C@@H](c2[nH]nc(-c3cccc(Cl)c3)c2-c2ccncc2)CC1 [Example C-105, 5-cis-(4-AMINOCYCLOHEXYL)-4-(4-PYRIDYL)-3-(3-CHLOROPHENYL)PYRAZOLE]
- IC50 [3, 11]: 33 nM
- inhibition in vivo at 5 mg/kg [4]: 46%

Structure (SMILES): CN(C)CC(=O)N1CCC(c2[nH]nc(-c3ccc(Cl)cc3)c2-c2ccncc2)CC1 [Example C-122]
- IC50 [3, 11]: 25 nM
- inhibition in vivo at 5 mg/kg [4]: 55%

Structure (SMILES): CN1CCC(c2[nH]nc(-c3ccc(Cl)cc3)c2-c2ccncn2)CC1 [Example C-137]
- IC50 [3, 11]: 51 nM
- inhibition in vivo at 5 mg/kg [4]: 58%

Structure (SMILES): O=C(CO)N1CCC(c2[nH]nc(-c3ccc(Cl)cc3)c2-c2ccncn2)CC1 [Example D-1, N-(2-Hydroxyacetyl)-5-(4-piperidyl)-4-(4-pyrimidyl)-3-(4-chlorophenyl)pyrazole]
- inhibition in vivo at 1 mg/kg ([4]; 1.0 mg/kg oral gavage, 4 hours before LPS challenge, read-out: ratLPS/% Inh @1.0 (mg/kg)): 83%
